Source: ChEMBL document CHEMBL1909046, “DrugMatrix in vitro pharmacology data”

Tests used:
Adenosine receptor A1 = target: T1, Adenosine receptor A1 (Homo sapiens, UniProt P30542); type: cell membranes, CHO, Membrane; details: cho;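 also: radioligand binding assay at the adenosine A1 receptor, with DPCPX serving as the labelled ligand; in other assays of this panel Not Active means under 50% inhibition at 10 µM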
T1 sequence (P30542 whole entry): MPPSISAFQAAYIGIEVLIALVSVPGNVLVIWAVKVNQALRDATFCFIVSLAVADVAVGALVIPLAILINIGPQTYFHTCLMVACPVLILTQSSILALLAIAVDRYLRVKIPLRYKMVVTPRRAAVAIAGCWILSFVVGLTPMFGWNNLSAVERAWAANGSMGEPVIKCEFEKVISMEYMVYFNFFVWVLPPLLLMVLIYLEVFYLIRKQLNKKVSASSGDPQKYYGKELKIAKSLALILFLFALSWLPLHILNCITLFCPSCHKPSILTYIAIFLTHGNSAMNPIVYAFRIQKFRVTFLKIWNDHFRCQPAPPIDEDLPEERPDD

[1] = target: T2, Cysteinyl leukotriene receptor 1 (Homo sapiens, UniProt Q9Y271); type: cell membranes, Membrane; details: cho-k1; also: in other assays of this panel Not Active means under 50% inhibition at 10 µM
T2 sequence (Q9Y271 whole entry): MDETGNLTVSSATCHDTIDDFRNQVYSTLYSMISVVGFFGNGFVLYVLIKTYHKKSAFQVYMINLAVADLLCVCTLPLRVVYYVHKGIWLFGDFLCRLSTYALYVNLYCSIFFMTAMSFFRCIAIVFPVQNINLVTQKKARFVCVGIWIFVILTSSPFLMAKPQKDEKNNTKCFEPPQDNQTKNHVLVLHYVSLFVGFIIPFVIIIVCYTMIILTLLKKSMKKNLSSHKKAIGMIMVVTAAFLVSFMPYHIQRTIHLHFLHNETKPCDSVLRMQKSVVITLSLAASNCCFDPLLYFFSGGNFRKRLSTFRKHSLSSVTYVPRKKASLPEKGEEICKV

Glucocorticoid receptor = target: T3, Glucocorticoid receptor (Homo sapiens, UniProt P04150); details: hela s3; also: in other assays of this panel Not Active means under 50% inhibition at 10 µM
T3 sequence (P04150 whole entry): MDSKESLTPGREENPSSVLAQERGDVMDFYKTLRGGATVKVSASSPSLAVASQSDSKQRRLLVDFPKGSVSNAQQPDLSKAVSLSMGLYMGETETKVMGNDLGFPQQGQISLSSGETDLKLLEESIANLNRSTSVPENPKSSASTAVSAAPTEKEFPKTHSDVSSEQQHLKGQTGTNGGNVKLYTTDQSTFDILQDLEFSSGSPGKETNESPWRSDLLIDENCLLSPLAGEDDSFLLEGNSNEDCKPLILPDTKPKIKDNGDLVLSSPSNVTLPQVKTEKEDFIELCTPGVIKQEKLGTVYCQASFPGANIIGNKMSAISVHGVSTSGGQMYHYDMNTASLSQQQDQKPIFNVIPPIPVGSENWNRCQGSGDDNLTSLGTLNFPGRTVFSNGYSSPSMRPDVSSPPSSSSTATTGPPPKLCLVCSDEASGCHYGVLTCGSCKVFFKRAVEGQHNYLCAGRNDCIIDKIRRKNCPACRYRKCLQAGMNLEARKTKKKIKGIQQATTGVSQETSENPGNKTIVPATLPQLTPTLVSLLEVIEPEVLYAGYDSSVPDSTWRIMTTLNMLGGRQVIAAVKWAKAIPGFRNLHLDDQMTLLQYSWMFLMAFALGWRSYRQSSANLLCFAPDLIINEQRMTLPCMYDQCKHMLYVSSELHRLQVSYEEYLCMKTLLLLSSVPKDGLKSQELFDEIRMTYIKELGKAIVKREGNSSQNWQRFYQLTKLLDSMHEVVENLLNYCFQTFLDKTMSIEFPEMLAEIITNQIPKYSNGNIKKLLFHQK

[2] = target: 5-hydroxytryptamine receptor 6 (Homo sapiens, UniProt P50406); type: cell membranes, HeLa, Membrane; details: hela; also: in other assays of this panel Not Active means under 50% inhibition at 10 µM
Chain of 5-hydroxytryptamine receptor 6 (P50406 whole entry): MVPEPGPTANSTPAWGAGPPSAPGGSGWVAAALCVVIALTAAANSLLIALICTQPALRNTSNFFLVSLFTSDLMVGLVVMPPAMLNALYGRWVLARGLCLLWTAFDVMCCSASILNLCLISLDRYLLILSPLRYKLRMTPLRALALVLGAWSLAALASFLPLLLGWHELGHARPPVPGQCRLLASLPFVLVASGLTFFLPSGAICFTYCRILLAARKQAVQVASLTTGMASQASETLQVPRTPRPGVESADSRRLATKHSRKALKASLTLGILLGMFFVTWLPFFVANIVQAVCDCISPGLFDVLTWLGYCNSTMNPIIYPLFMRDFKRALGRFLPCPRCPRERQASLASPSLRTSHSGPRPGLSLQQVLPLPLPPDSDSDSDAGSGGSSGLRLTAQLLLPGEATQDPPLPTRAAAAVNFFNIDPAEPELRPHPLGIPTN

[3] = target: C-C chemokine receptor type 5 (Homo sapiens, UniProt P51681); type: cell membranes, Membrane; details: hek293; also: in other assays of this panel Not Active means under 50% inhibition at 10 µM
Chain of C-C chemokine receptor type 5 (P51681 whole entry): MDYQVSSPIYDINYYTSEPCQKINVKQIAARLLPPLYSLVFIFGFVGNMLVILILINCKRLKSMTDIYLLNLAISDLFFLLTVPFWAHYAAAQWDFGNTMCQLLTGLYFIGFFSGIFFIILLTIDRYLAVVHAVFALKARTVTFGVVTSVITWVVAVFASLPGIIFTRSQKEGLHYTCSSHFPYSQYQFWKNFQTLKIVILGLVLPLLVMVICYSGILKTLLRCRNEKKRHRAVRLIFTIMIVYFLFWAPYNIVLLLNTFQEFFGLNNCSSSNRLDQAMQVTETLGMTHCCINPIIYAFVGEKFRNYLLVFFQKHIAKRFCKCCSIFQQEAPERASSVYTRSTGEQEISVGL

[4] = target: cGMP-specific 3',5'-cyclic phosphodiesterase (Homo sapiens, UniProt O76074); experiment: DRUGMATRIX: Phosphodiesterase PDE5 enzyme inhibition (substrate: [3H]cGMP + cGMP); type: tissue-based, Platelet; details: platelet; Not Active = under 50% inhibition at 10 µM

Measured: IC50

CN1[C@@H]2CC[C@H]1C[C@@H](OC(=O)C(CO)c1ccccc1)C2 (stereo partly specified) [ATROPINE]
Not Active: Adenosine receptor A1 | [1] | Glucocorticoid receptor | [2] | [3] | [4]

Oc1cccc(O)c1O [PYROGALLOL]
Not Active: Adenosine receptor A1 | [1] | Glucocorticoid receptor | [2] | [3] | [4]

O=C/C=C/c1ccccc1
Not Active: Adenosine receptor A1 | [1] | Glucocorticoid receptor | [2] | [3] | [4]

C[n+]1ccc(-c2cc[n+](C)cc2)cc1.[Cl-].[Cl-] [PARAQUAT DICHLORIDE]
Not Active: Adenosine receptor A1 | [1] | Glucocorticoid receptor | [2] | [3] | [4]

CCCN(CCC)S(=O)(=O)c1ccc(C(=O)O)cc1 [PROBENECID]
Not Active: Adenosine receptor A1 | [1] | Glucocorticoid receptor | [2] | [3] | [4]

CC[C@H]1CN2CCc3cc(OC)c(OC)cc3[C@@H]2C[C@@H]1C[C@H]1NCCc2cc(OC)c(OC)cc21 [EMETINE]
Not Active: Adenosine receptor A1 | [1] | Glucocorticoid receptor | [2] | [3] | [4]
